Consider four molecules from ChEMBL document CHEMBL1131991, “Discovery of CP-199,330 and CP-199,331: two potent and orally efficacious cysteinyl LT1 receptor antagonists devoid of liver toxicity” (Bioorg Med Chem Lett, 1999).

Data set [1] deals with Cavia porcellus. As to the kind of experiment: Compound was evaluated in vivo for antigen induced airway obstruction in guinea pig (OA) at 1.0 hour after oral administration. Format: functional.
Data set [2] can be described thus: Compound was evaluated for terminal half life in monkey. It is filed as ADME. As to conditions: cercopithecidae, in vivo.
For another data set, the species on record is Rattus norvegicus. Kind of data set: Compound was evaluated for Hepatic clearance in rat. It is filed as ADME, organism-based, Liver. The conditions noted are these: in vivo.
A short description of data set [3]: Compound was evaluated for Hepatic clearance in monkey. It is filed as ADME, organism-based, Liver. The conditions noted are these: cercopithecidae, in vivo.
Data set [4] in a line: Oral bioavailability in monkey. Format: ADME, organism-based. As to conditions: cercopithecidae, in vivo.
A short description of data set [5]: Oral bioavailability in rat. Format: ADME, organism-based. The conditions noted are these: in vivo.
The nature of data set [6]: Compound was evaluated for terminal half life in rat. Format: ADME, organism-based. The conditions noted are these: in vivo.
Data set [7] deals with T1, Cysteinyl leukotriene receptor 1 (Cavia porcellus, UniProt Q2NNR5).
T1 sequence (Q2NNR5 whole entry): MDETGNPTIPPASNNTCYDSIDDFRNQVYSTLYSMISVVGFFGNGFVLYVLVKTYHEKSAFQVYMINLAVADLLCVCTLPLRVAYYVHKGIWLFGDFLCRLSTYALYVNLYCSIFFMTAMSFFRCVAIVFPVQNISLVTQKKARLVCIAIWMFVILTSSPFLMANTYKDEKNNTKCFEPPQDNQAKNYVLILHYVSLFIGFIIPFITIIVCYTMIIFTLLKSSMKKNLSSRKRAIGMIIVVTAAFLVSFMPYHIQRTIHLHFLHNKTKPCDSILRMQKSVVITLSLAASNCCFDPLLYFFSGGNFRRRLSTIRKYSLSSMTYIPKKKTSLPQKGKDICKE
Kind of data set: In vitro binding of Cysteinyl leukotriene receptor 1 to guinea pig lung membranes. It is filed as tissue-based, Membrane.

The test system of data set [8] is Cavia porcellus. Kind of data set: Compound was evaluated in vivo for cysLT1 receptor induced airway obstruction in guinea pig (OA) at 1.0 hour after oral administration. It is filed as functional.
The next data set concerns U-937. As to the kind of experiment: In vitro blocking of extracellular calcium mobilization in human U937 cells. It is filed as functional, cell-based. (In general: Calcium assays in cells follow changes in intracellular calcium, usually with a dye or a luminescent sensor.)
Data set [9] relates to Cavia porcellus. Kind of data set: Compound was evaluated in vivo for cysLT1 receptor induced airway obstruction in guinea pig (OA) at 1.0 hour after oral administration. It is filed as functional.
Data set [10] relates to Cavia porcellus. Kind of data set: Compound was evaluated in vivo for antigen induced airway obstruction in guinea pig (OA) at 2.0 hour after oral administration. It is filed as functional.
Data set [11] deals with Cavia porcellus. Kind of data set: Compound was evaluated in vivo for cysLT1 receptor induced airway obstruction in guinea pig (OA) at 2.0 hour after oral administration. Format: functional.

Molecules are shown by their SMILES.

A word on the ED50: it is the dose that gives a 50% effect, or the effect in half of the subjects. `O=C(Nc1cccc2c(=O)cc(-c3nnn[nH]3)oc12)c1ccc(OCCCCc2ccccc2)cc1` registered an ED50 in the data set with Cavia porcellus [1] of 1.5 mg/kg.
Broadly, the half-life is the time needed for the level to fall by half in the phase considered. One may read the bioavailability as the share of a dose that reaches the circulation, judged against a reference dose that is usually intravenous. As a reminder, the Ki is a measure of affinity in units of concentration, obtained from inhibition or displacement. What is called IC50 is the concentration at which inhibition is half-maximal. Turning to `COc1ccc(NS(=O)(=O)C(F)(F)F)cc1C[C@@H]1COc2ccc(OCc3ccc4ccc(Cl)cc4n3)cc2[C@@H]1O`, the values for the half-life in data set [2] and in data set [6] were 2.1 h and 0.8 h, respectively. Besides, the Clp came out at 0.534 L/h/kg in the data set filed under Rattus norvegicus and 0.39 L/h/kg in data set [3]. The bioavailability in data set [4] stood at 100%; in [5] it was 53%. Besides, in data set [7], affinity was put at a Ki of 0.6 nM. Also, the ED50 was determined as 0.46 mg/kg in the data set with Cavia porcellus [1] and 0.12 mg/kg in the data set on Cavia porcellus [8]. Also, the IC50 with U-937 worked out at 0.7 nM.
Take `COc1ccc(NS(=O)(=O)C(F)(F)F)cc1C[C@@H]1COc2ccc(OCc3nc4cc(F)c(F)cc4s3)cc2[C@@H]1O`: the half-life in [2] was 9.4 h; in [6] it was 8.8 h. Also, the Clp in the data set listed under Rattus norvegicus was 0.498 L/h/kg; in [3] it was 0.252 L/h/kg. In addition, the bioavailability in data set [4] came to 72%; in [5], 46%. In data set [7], the affinity, expressed as Ki, was 0.4 nM. For the same molecule, the median effective dose (ED50) turned out to be 0.52 mg/kg in the data set on Cavia porcellus [1] and 0.08 mg/kg in the data set with Cavia porcellus [9]. The concentration for half-maximal inhibition (IC50) in the data set with U-937 was 0.3 nM.
Take `COc1cc(C(=O)NS(=O)(=O)c2ccccc2C)ccc1Cc1cn(C)c2ccc(NC(=O)OC3CCCC3)cc12` [ZAFIRLUKAST]: the results for the median effective dose (ED50) with Cavia porcellus [10] and in the data set on Cavia porcellus [11] were 0.9 mg/kg and 0.52 mg/kg, respectively.
